Source: article PMC11683478, “Bioprospecting of culturable marine biofilm bacteria for novel antimicrobial peptides” (iMeta, 2024)
Where a SMILES comes first, the peptide text is derived from it. Where no end group is shown, it is not given here.

Assays:
[1] = tested on: human normal colon epithelial cells (NCM-460); assay type: cell-based; settings: 48 h
Experimental: Human normal colon epithelial cells (NCM‐460) were purchased from the BeNa Culture Collection. Cytotoxicity was measured using the 3‐[4,5‐dimethylthiazol‐2‐yl]−2,5 diphenyl tetrazolium bromide (MTT) assay. The NCM‐460 cells were cultured in the Dulbecco's modified Eagle's medium (DMEM)‐H complete culture medium (90% DMEM‐H, 10% FBS, 10,000 U/mL penicillin, and 10,000 μg/mL streptomycin) to logarithmic growth phase. The suspension of cells was prepared at 10^5 cells/100 μL/well in a 96‐well plate. The peptides selected for the assay were dissolved in the DMEM‐H medium to prepare a 25 mg/mL stock solution, diluted for multiple gradients of 4–512 μg/mL. Afterwards, the peptides that had been diluted (100 μL/well) were introduced into the cells residing on a 96‐well plate. The DMEM‐H medium served as the blank group, the cell suspension as the control group, and the cell suspension combined with the peptide as the experimental group. Each group was conducted in three separate replicates. After 48 h of culture, 10 μL MTT was added to each well and incubated further at 37°C for 4 h. Then 100 μL Formazan solution was added and incubated further at 37°C for 4 h until all the purple crystals were dissolved. The absorbances were measured at OD570. Cell viability was determined by calculating cell viability using the following formula. Cell viability=OD570(experimental)−OD570(blank)/OD570(control)−OD570(blank)×100%.
Then, the CC50 value of each AMP molecule was calculated using an online tool: https://www.aatbio.com/tools/ic50-calculator.

[2] = tested on: sheep red blood cells; settings: red cells of sheep, 1 h
Experimental: Freshly collected sheep blood was centrifuged at 3000 rpm for 10 min, and the supernatant was removed. The pellet was washed and resuspended with normal saline water to produce a 2% blood cell solution. Then, 400 μL of peptide solution was added to 100 μL of 2% blood cell solution to achieve final peptide concentrations of 8, 16, 32, 64, and 128 μg/mL. Normal saline water and Triton X‐100 normal saline solution (2%) were used as negative and positive controls, respectively. The samples were incubated in a water bath at 37°C for 1 h, followed by centrifugation at 3000 rpm for 10 min. Then, 200 μL of the supernatant was transferred to a 96‐well plate, and OD values were measured at a wavelength of 545 nm. The hemolysis rate of each sample was calculated using the following formula: Hemolysis ratio=OD545(experimental)−OD545(negative control)/OD545(positive control)−OD545(negative control)×100%.

[3] = tested on: eight pathogenic bacterial strains; assay: MIC, panel statement; assay type: cell-based; settings: panel of eight strains, CAMHB, 37°C
Experimental: Eight bacterial strains were utilized in the antibacterial experiment. S. aureus ATCC 12600, B. subtilis ATCC 23857, E. coli ATCC 11775, and A. baumannii ATCC 19606 were purchased from Shanghai Beinuo Biology. M. luteus ATCC 4698 and S. bongori ATCC43975 were purchased from Shanghai Beisi Biotechnology. V. owensii ems001 and V. alginolyticus xv22 from the intestines of diseased shrimps were isolated in our laboratory. All strains were cultured in the cation‐adjusted Mueller‐Hinton broth (CAMHB) at 37°C to the logarithmic growth phase (OD600 = 0.5). Then, bacteria were gradient‐diluted using fresh CAMHB to a bacterial density of 5 × 10^5 CFU/mL. Antibacterial experiments were performed in a 96‐well plate with 200 μg/mL final peptide concentration. Four experimental groups were set up, including a blank control (200 μL CAMHB), a negative control (180 μL CAMHB plus 20 μL peptide), a positive control (180 μL bacterial culture plus 20 μL ultrapure water), and an experimental group (180 μL bacterial culture plus 20 μL peptide). Three biological replicates were conducted for each group, and OD600 values were measured after incubation at 37°C for 12 h. Every observed value was removed from the blank control group value. […] The MIC of a peptide against a bacterium was determined as the minimum peptide concentration at which there was no visible bacterial growth.

[4] = tested on: Micrococcus luteus ATCC 4698; assay: Antibacterial screen at 200 μg/mL (cell density vs control); assay type: cell-based; settings: peptide 200 μg/mL, CAMHB, 5 × 10^5 CFU/mL, 37°C, 12 h, OD600; control (no AMP) = 1; three biological replicates
Summary of the method: (§1)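 Log-phase bacteria (OD600 0.5) in CAMHB diluted to 5 × 10^5 CFU/mL and exposed to 200 μg/mL peptide for 12 h at 37 °C, triplicate biological replicates. OD600 corrected for blank and peptide-only controls, compared with untreated growth by t-test (p 0.05); MIC taken as lowest concentration with no visible growth.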

[5] = tested on: Vibrio owensii ems001; assay: as above; assay type: cell-based; settings: peptide 200 μg/mL, CAMHB, 5 × 10^5 CFU/mL, 37°C, 12 h, OD600; control (no AMP) = 1; three biological replicates
Summary of the method: as §1

[6] = tested on: Bacillus subtilis ATCC 23857; assay: as above; assay type: cell-based; settings: peptide 200 μg/mL, CAMHB, 5 × 10^5 CFU/mL, 37°C, 12 h, OD600; control (no AMP) = 1; three biological replicates
Summary of the method: as §1

[7] = tested on: Salmonella bongori ATCC 43975; assay: as above; assay type: cell-based; settings: peptide 200 μg/mL, CAMHB, 5 × 10^5 CFU/mL, 37°C, 12 h, OD600; control (no AMP) = 1; three biological replicates
Summary of the method: as §1

[8] = tested on: Escherichia coli ATCC 11775; assay: as above; assay type: cell-based; settings: peptide 200 μg/mL, CAMHB, 5 × 10^5 CFU/mL, 37°C, 12 h, OD600; control (no AMP) = 1; three biological replicates
Summary of the method: as §1

[9] = tested on: Staphylococcus aureus ATCC 12600; assay: as above; assay type: cell-based; settings: peptide 200 μg/mL, CAMHB, 5 × 10^5 CFU/mL, 37°C, 12 h, OD600; control (no AMP) = 1; three biological replicates
Summary of the method: as §1

[10] = tested on: Acinetobacter baumannii ATCC 19606; assay: as above; assay type: cell-based; settings: peptide 200 μg/mL, CAMHB, 5 × 10^5 CFU/mL, 37°C, 12 h, OD600; control (no AMP) = 1; three biological replicates
Summary of the method: as §1

[11] = tested on: Vibrio alginolyticus xv22; assay: as above; assay type: cell-based; settings: peptide 200 μg/mL, CAMHB, 5 × 10^5 CFU/mL, 37°C, 12 h, OD600; control (no AMP) = 1; three biological replicates
Summary of the method: as §1

Row | Molecule | Cytotoxicity CC50 [1] | Hemolysis ratio (%) at 8μg/mL [2] | Hemolysis ratio (%) at 16μg/mL [2] | Hemolysis ratio (%) at 32μg/mL [2] | Hemolysis ratio (%) at 64μg/mL [2] | Hemolysis ratio (%) at 128μg/mL [2] | MIC against nearly all strains [3] | cell density relative to control, M. luteus ATCC 4698 [4] | cell density relative to control, V. owensii ems001 [5] | cell density relative to control, B. subtilis ATCC 23857 [6] | cell density relative to control, S. bongori ATCC 43975 [7] | cell density relative to control, E. coli ATCC 11775 [8] | cell density relative to control, S. aureus ATCC 12600 [9] | cell density relative to control, A. baumannii ATCC 19606 [10] | cell density relative to control, V. alginolyticus xv22 [11]
1 | CSCC[C@H](N)C(=O)N[C@@H](CCCCN)C(=O)N1CCC[C@H]1C(=O)N[C@@H](CS)C(=O)N[C@@H](CCCNC(=N)N)C(=O)N[C@@H](CCCCN)C(=O)N[C@@H](C)C(=O)N[C@@H](CC(C)C)C(=O)N[C@@H](Cc1c[nH]c2ccccc12)C(=O)N[C@@H](CO)C(=O)N[C@H](C(=O)N[C@@H](Cc1c[nH]c2ccccc12)C(=O)N[C@@H](CCCCN)C(=O)N[C@@H](CCCNC(=N)N)C(=O)N[C@@H](CCCCN)C(=O)N[C@@H](CS)C(=O)N[C@@H](CCCNC(=N)N)C(=O)N[C@@H](Cc1c[nH]cn1)C(=O)N[C@@H](CCC(=O)O)C(=O)O)C(C)C [Cand-196] (H-MKPCRKALWSVWKRKCRHE-OH) | 18.881 µg/mL | 1.481% | 2.356% | 4.680% | 5.976% | 13.102% |  |  |  |  |  |  |  |  | 
2 | MKKCRRKVLFGLWRRN [Cand-77] | 45.263 µg/mL | 3.431% | 4.302% | 5.822% | 8.387% | 12.471% | ≤ 32 µg/mL |  |  |  |  |  |  |  | 
3 | MRCSLKKIISTFFS [Cand-71] | 23.841 µg/mL | 6.779% | 7.213% | 15.000% |  | 19.534% |  |  |  |  |  |  |  |  | 
4 | MRIVMCRIGGRL [Cand-102] | 5.897 µg/mL | 6.842% | 37.647% | 54.569% |  | 41.034% |  |  |  |  |  |  |  |  | 
5 | MSRSLRNLLKYVWVKVKGE [Cand-217] | 25.740 µg/mL | 2.490% | 2.604% | 4.447% | 9.600% |  | ≤ 32 µg/mL |  |  |  |  |  |  |  | 
6 | MVAVMKKLLLKYALK [Cand-82] | 10.864 µg/mL | 2.395% | 3.214% | 3.498% | 2.486% |  |  |  |  |  |  |  |  |  | 
7 | MWTVRPRICAARGRL [Cand-172, chemically synthesized candidate AMP predicted from marine biofilm bacteria] |  |  |  |  |  |  |  | 0.9 | 0 | 0 | 0.898 | 1 | 0 | 1 | 0
8 | MWWSKSIHQACFTRYRGYCRWCCTFSIRSCRY [Cand-3, chemically synthesized candidate AMP predicted from marine biofilm bacteria] |  |  |  |  |  |  |  | 1 | 0 | 1 | 0.438 | 0.786 | 0 | 0.702 | 0
9 | MWWSKSIHQASFTRYRSYCRGCCTFSIRSCRYKRRII [Cand-180, chemically synthesized candidate AMP predicted from marine biofilm bacteria] |  |  |  |  |  |  |  | 0 | 0 | 0 | 0.025 | 0 | 0.107 | 0 | 0
10 | MYSVWPKSLRSVAGRGPKHRC [Cand-139, chemically synthesized candidate AMP predicted from marine biofilm bacteria] |  |  |  |  |  |  |  | 1 | 0.342 | 0.931 | 0.426 | 0.764 | 0 | 0.959 | 0.013
